Laboratory results from PubChem BioAssay AID434957 (The Scripps Research Institute Molecular Screening Center, 2010).
The source made the active and inactive calls.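 How the source made its calls: active means IC50, the dose halving KLF5 reporter signal, at most 10 µM; inactive means IC50 above 10 µM or none.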

System: DLD-1 KLF5 promoter luciferase reporter, luminescence
Assay: KLF5 promoter reporter inhibitors, SAR follow-up, luminescence, DLD-1 cells, round 1 (AID 434957)

SMILES | IC50
CC(C)(C)c1ccc(-c2noc(CCC(=O)Nc3ccncc3)n2)cc1 | 0.107 µM
Cc1ccc(-n2nc3ccc(NC(=O)COc4ccc(C)c(C)c4)cc3n2)cc1 | > 39.8 µM (inactive)
CCOc1ccc(NC(=O)CCc2nc(-c3ccc(C(C)(C)C)cc3)no2)cc1 | 0.285 µM
Cc1nc(NC(=O)c2ccc3ncsc3c2)sc1C(=O)N(C)C | > 39.8 µM (inactive)
CC(C)(C)C(=O)Nc1ccc2nn(-c3ccc(F)cc3)nc2c1 | 4.56 µM
Cc1ccc(OCC(=O)Nc2ccc3nn(-c4cccc(C(F)(F)F)c4)nc3c2)cc1C | > 39.8 µM (inactive)
COc1ccc2nc(Nc3nc4ccc(F)cc4s3)sc2c1 | > 39.8 µM (inactive)
CC(NC(=O)c1ccccc1)c1nc(-c2ccc(C(C)(C)C)cc2)no1 (stereo unspecified) | > 39.8 µM (inactive)
O=C(Cc1ccccc1)Nc1cc2nn(-c3ccccc3)nc2cc1Cl | 7.96 µM
CC(C)(C)c1ccc(-c2noc(CCC(=O)NCc3ccccc3)n2)cc1 | 3.57 µM
Cc1cccc(NC(=O)CCc2nc(-c3ccc(C(C)(C)C)cc3)no2)c1 | 0.229 µM
CC(=O)c1sc(NC(=O)c2ccc3ncsc3c2)nc1-c1ccccc1 | > 39.8 µM (inactive)
CC(C)c1ccc2nc(Nc3nc4ccc(F)cc4s3)sc2c1 | > 39.8 µM (inactive)
CC(C)(C)c1ccc(-c2noc(CCC(=O)Nc3ccccc3)n2)cc1 | 0.116 µM
O=C(Nc1cc2nn(-c3ccccc3)nc2cc1Cl)C1COc2ccccc2C1 (stereo unspecified) | > 39.8 µM (inactive)
Nc1cc2nn(-c3ccccc3)nc2cc1Cl | > 39.8 µM (inactive)
COc1ccc(-n2nc3cc(C)c(NC(=O)C(C)C)cc3n2)cc1 | > 39.8 µM (inactive)
CC(C)(C)c1ccc(-c2noc(CCC(=O)Nc3ccccn3)n2)cc1 | 0.159 µM

SMILES | IC50
CCOc1ccc2nc(Nc3nc4ccc(F)cc4s3)sc2c1 | > 39.8 µM (inactive)
CC1(C)CC(=O)c2sc(NC(=O)c3ccc4ncsc4c3)nc2C1 | > 39.8 µM (inactive)
CC(C)(C)c1ccc(-c2noc(CCc3nc4ccccc4[nH]3)n2)cc1 | > 39.8 µM (inactive)
CC(C)(C)c1ccc(-c2coc(CCC(=O)Nc3ccccn3)n2)cc1 | 19.4 µM (inactive)
COc1ccc(-n2nc3ccc(NC(=O)C4CCN(S(=O)(=O)c5ccc(Cl)cc5)CC4)cc3n2)cc1 | > 39.8 µM (inactive)
CCNC(=O)c1sc(NC(=O)c2ccc3ncsc3c2)nc1C | > 39.8 µM (inactive)
CC(C)(C)c1ccc(-c2noc(CCCC(=O)Nc3ccccc3Cl)n2)cc1 | 0.806 µM
O=C(COc1ccccc1)Nc1ccc2nn(-c3cccc(Cl)c3)nc2c1 | > 39.8 µM (inactive)
CC(=O)Nc1ccc2nc(Nc3nc4ccc(F)cc4s3)sc2c1 | > 39.8 µM (inactive)
CC(=O)c1sc(NC(=O)c2ccc3ncsc3c2)nc1C | > 39.8 µM (inactive)
CC(C)(C)c1ccc(-c2noc(CCC(=O)Nc3ccc(N4CCOCC4)nc3)n2)cc1 | 0.267 µM
CC(C)C(=O)Nc1ccc2nn(-c3ccc(Cl)cc3)nc2c1 | 26.3 µM (inactive)
CC(C)(C)C(=O)Nc1ccc2nn(-c3ccccc3)nc2c1 | 3.18 µM
CCNC(=O)c1ccc2nc(Nc3nc4ccc(F)cc4s3)sc2c1 | 0.0562 µM
CN(C)C(=O)c1ccc2nc(Nc3nc4ccc(F)cc4s3)sc2c1 | 0.0131 µM
CS(=O)(=O)c1ccc2nc(Nc3nc4ccc(F)cc4s3)sc2c1 | > 39.8 µM (inactive)
Cc1ccc(-n2nc3cc(Cl)c(NC(=O)c4cccnc4)cc3n2)cc1 | > 39.8 µM (inactive)
COc1ccc(-n2nc3ccc(NC(=O)C(C)(C)C)cc3n2)cc1 | > 39.8 µM (inactive)
